Here are results for 4 molecules from US5281598A, “Piperazine derivatives” (Akzo N.V., priority 1992, dated 1994).

The target of series [1] is α1 adrenoceptor. The experiment in a line: α1 adrenoceptor affinity, prazosin (PRA) binding.
Experimental: (§1) The activities are expressed as pKi values (-log Ki values; Ki being the binding constant). The sigma receptor binding was assessed by the 1,3-di-o-tolylguanidine (DTG) binding as described by Fox et al., Eur. J. Pharmacol., 193, 139-143, 1991. The α1 adrenoceptor affinity was assessed by the prazosin (PRA) binding as described by de Boer et al., Arzneim. Forsch., 40, 550-554, 1990.
The target of series [2] is sigma receptor. The experiment in a line: sigma receptor binding, 1,3-di-o-tolylguanidine (DTG) binding. Particulars: 1,3-di-o-tolylguanidine binding.
Experimental: as §1
For series [3], the system named is α1 adrenoceptor. The experiment in a line: α1 adrenoceptor activity of the prior art compounds (statement in background). Particulars: in words.
Series [4] deals with sigma receptor. Particulars: in words; disclosed in WO 91/09594; cited from earlier work.
The conditions of series [5]: in words; literature (Tamminga and Gerlach); cited from earlier work.

`c1ccc(CCCN2CCN(c3ccccc3)CC2)cc1` [Compound 46 of WO 91/09594]: the “PRA pKi (-log Ki)” value in series [1] came out at 8.7. In series [2], the “DTG pKi (-log Ki)” value was 8.2. Also, the α1 adrenoceptor activity entry in series [3] was “possess α1 adrenoceptor activity”. Also, the sigma receptor affinity result in series [4] is on record as “displaying sigma receptor affinity”.

On to `c1ccc(CCCCN2CCN(Cc3ccccc3)CC2)cc1` [Compound 79 of WO 91/09594], for which, in series [1], the “PRA pKi (-log Ki)” value came to 7.4. For the same molecule, in series [2], the “DTG pKi (-log Ki)” value is 8.6. Besides, the α1 adrenoceptor activity result in series [3] is “possess α1 adrenoceptor activity”. In addition, the sigma receptor affinity entry in series [4] is on record as “displaying sigma receptor affinity”.

Consider `Cl.Cl.c1ccc(CCCN2CCN(CCOCc3ccccc3)CC2)cc1` [Compound of Example 1, 1-[2-(phenylmethoxy)ethyl]-4-(3-phenylpropyl)piperazine dihydrochloride], for which the “PRA pKi (-log Ki)” value in series [1] is 5.7. In series [2], the “DTG pKi (-log Ki)” value amounted to 8.7.

For the molecule `CN1CCN(C2=Nc3cc(Cl)ccc3Nc3ccccc32)CC1` [clozapine], the “induction of orthostatic hypotension” value in series [5] is reported as “induction of orthostatic hypotension”.
